Assays:
Format in all cases: cell-based
EP4 = target: T1, EP4 (Homo sapiens, UniProt P35408); assay: hEP4 cAMP Assay (BT549 breast cancer cells, HTRF cAMP, PGE2 6 nM); conditions: antagonistic activity, PGE2 6 nM (EC80)
T1 construct: BT549 breast cancer cells, express high endogenous EP4 levels and very low EP2 levels; host or cells: BT549 breast cancer cells
Experimental: (§1) The antagonistic activities of the compounds of formula (I) on the EP2 and EP4 receptors are also determined in accordance with the following experimental method.
(§2) Human tumor cell lines expressing endogenously either EP4 or EP2 are used and cAMP accumulation in cells upon PGE2 stimulation is monitored. SF295 glioblastoma cells express high endogenous EP2 and no EP4, whereas BT549 breast cancer cells, express high endogenous EP4 levels and very low EP2 levels.
(§3) As a detection method for cAMP the HTRF (homogeneous time resolved fluorescence) Cisbio kit (HTRF cAMP dynamic 2 kit 20′000 tests Cisbio Cat. #62AM4PEC) was used, which is based on a competitive immunoassay using a Cryptate-labeled anti-cAMP antibody and d2-labeled cAMP. Native cAMP produced by cells or unlabeled cAMP (for the standard curve) compete with exogenously added d2-labeled cAMP (acceptor) for binding to monoclonal anti-cAMP-Eu3+Cryptate (donor). A FRET signal (Fluorescence Resonance Energy Transfer) is obtained only if the labeled anti-cAMP antibody binds the d2 labelled cAMP, thus the specific signal (i.e. energy transfer) is inversely proportional to the concentration of cAMP in the standard or sample.
(§4) The BT549 cells (NCI/No. 0507282) are detached from culture dishes with a cell dissociation buffer (Invitrogen, 13151-014), and collected in growing medium (GM: RPMI1640 (Invitrogen 21875)/10% FCS, 1% Penicilin/streptomycin). Cells are counted washed and resuspended in assay buffer (AB; HBSS, 20 mM HEPES, 0.2% BSA; 2 mM IBMX). 4′000 cells in 5 μL of AB are seeded per well of a small volume 384 well plate (black with flat bottom, Greiner 784076).
(§5) Stock solutions of test compounds are made at a concentration of 10 mM in DMSO, and serially diluted in DMSO to concentrations required for inhibition dose response curves (tested concentration range 30 μM-0.4 nM; 30 μM-0.015 nM or 1 μM-0.01 nM).
PGE2 (Cayman 14010, stock solution: 6 uM in DMSO) is used as agonist at 6 nM final concentration, corresponding to EC80.
(§6) 2.5 μL of diluted compounds are transferred into the assay plate. Plate is pre-incubated 45 minutes at room temperature. Subsequently, 2.5 μL of PGE2 (final conc. 6 nM) are transferred into the assay plate. Plate is incubated 30 minutes at room temperature. 5 μL of each donor (anti-cAMP cryptate) and acceptor (cAMP-d2) are added and the plate is incubated another hour at room temperature in the dark and then read using a BMG LABTECH PHERAstar reader (Excitation: 337 nm, Emission: 620 and 665 nm).
(§7) The obtained Delta F (fluorescence) values (665 nm/620 nM) are converted into % cAMP values using the measurements of the cAMP calibrator provided in the kit. For each compound concentration the percentage of cAMP compared to DMSO control value as average ±STDEV (each concentration is measured in duplicate) is calculated.
(§8) IC50 values and curves are generated with XLfit software (IDBS) using Dose-Response One Site model 203. When compounds were measured multiple times, mean values are given.

EP2 = target: T2, EP2 (Homo sapiens, UniProt P43116); assay: hEP2 cAMP Assay (SF295 glioblastoma cells, HTRF cAMP, PGE2 75 nM); conditions: antagonistic activity, PGE2 75 nM (EC80)
T2 construct: SF295 glioblastoma cells express high endogenous EP2 and no EP4; host or cells: SF295 glioblastoma cells
Experimental: as §1, §2, §3
as §4, with “SF295” for “BT549”, “0503170)” for “0507282)”, “RPM11640” for “RPMI1640”
as §5
PGE2 (Cayman 14010, stock solution: 75 μM in DMSO) is used as agonist at 75 nM final concentration, corresponding to EC80.
as §6, with “conc. 75” for “conc. 6”, “temperature. Five” for “temperature. 5”
as §7, §8

PTGER2 (EP2) = target: T3, PTGER2 (EP2) (Homo sapiens, UniProt P43116); assay: hEP2 b-Arrestin Assay (PathHunter HEK 293 PTGER2 b-arrestin cells, PGE2 5 μM); conditions: antagonistic activity, beta-arrestin assay, HEK 293 PTGER2 cells, PGE2 5 μM (EC80); read-out: hEP2 b-arr IC50
T3 construct: host or cells: HEK 293 (PathHunter, stably transfected)
Experimental: as §1
The assay is using the PathHunter™ HEK 293 PTGER2 and PTGER4 b-arrestin cell lines from DiscoverX. The system is based on the Enzyme Fragment Complementation Technology. Two complementing fragments of the b-galactosidase enzyme are expressed within stably transfected cells. The larger portion of b-gal, termed EA for Enzyme Acceptor, is fused to the C-terminus of b-arrestin 2. The smaller fragment, termed ProLink™ tag, is fused to PTGER2 (EP2) or PTRGER4 (EP4) at the C-terminus. Upon activation, b-arrestin is recruited which forces the interaction of ProLink and EA, allowing complementation of the two fragments of b-gal and the formation of a functional enzyme which is capable of hydrolysing the substrate and generating a chemiluminescent signal.
The HEK 293 PTGER2 b-arrestin cells (DiscoverX 93-021-4C1) are detached from culture dishes with a cell dissociation buffer (Invitrogen, 13151-014), and collected in growing medium (GM: DMEM+Glutamax-I (Invitrogen 32430)/10% FCS, 1% Penicilin/streptomycin). 5000 cells per well of a 384 well plate (white with white bottom Greiner 781080) are seeded in 20 μl per well of GM. Plate is incubated at 37° C., 5% CO2 for 24 hours.
Stock solutions of test compounds are made at a concentration of 10 mM in DMSO, and serially diluted in DMSO to concentrations required for inhibition dose response curves (tested concentration range 10 μM-2 nM or 1 μM-0.2 nM).
PGE2 (Cayman 14010, stock solution: 10 mM in DMSO) is used as agonist at 5 μM final concentration, corresponding to EC80.
Five microliters of diluted compounds are transferred into the assay plate. Plate is pre-incubated 15 minutes at 37° C. Then five microliters of PGE2 (final conc. 5 μM) are transferred into the assay plate. Plate is incubated 120 minutes at 37° C.
PathHunter Glo Detection Kit components are thawed and mix according to manufacturer's instructions: 1 part Galacton Star Substrate with 5 parts Emerald II™ Solution, and 19 parts of PathHunter Cell Assay Buffer, respectively. Twelve μl of reagent are transferred to the assay plate and incubate for 1 hour at room temperature in the dark. Luminescence counts are read on a BMG Fluostar Optima reader according to manufacturer's instructions.
For each compound concentration calculate of the percentage of activity compared to DMSO control value as average ±STDEV. (each concentration is measured in duplicate)
as §8

T1 sequence (P35408 whole entry): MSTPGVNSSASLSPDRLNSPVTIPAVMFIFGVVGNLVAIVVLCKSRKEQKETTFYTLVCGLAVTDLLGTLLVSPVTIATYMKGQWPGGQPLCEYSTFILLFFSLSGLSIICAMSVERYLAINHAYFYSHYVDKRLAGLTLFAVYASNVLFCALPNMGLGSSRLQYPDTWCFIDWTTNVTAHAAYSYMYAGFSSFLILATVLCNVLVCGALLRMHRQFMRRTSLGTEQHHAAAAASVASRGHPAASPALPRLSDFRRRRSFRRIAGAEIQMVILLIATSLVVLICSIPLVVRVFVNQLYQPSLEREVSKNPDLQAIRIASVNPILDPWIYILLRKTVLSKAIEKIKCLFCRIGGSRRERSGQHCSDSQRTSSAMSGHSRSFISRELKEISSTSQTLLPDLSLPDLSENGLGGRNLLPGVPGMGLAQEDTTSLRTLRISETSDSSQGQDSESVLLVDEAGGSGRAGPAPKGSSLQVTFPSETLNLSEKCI
T2 sequence (P43116 whole entry): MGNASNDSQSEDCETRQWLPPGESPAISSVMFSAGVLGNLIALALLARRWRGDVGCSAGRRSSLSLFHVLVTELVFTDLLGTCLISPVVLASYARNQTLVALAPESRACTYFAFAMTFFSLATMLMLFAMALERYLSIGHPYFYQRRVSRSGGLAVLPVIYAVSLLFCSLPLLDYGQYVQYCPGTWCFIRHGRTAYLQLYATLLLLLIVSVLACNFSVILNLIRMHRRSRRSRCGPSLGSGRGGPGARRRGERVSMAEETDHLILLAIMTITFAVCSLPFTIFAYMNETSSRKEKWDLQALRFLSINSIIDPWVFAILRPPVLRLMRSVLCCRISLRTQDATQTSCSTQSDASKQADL
T3 sequence (P43116 whole entry): as above

IC50 (EP4) | IC50 (EP2) | IC50 (PTGER2 (EP2)) | SMILES
292 nM | 52 nM | 53 nM | CCOc1cc(-c2cc(NCCc3cccc4cc(C)n(C)c34)ncn2)sc1C(=O)O [Example 56, 5-{6-[2-(1,2-Dimethyl-1H-indol-7-yl)-ethylamino]-pyrimidin-4-yl}-3-ethoxy-thiophene-2-carboxylic acid]
458 nM | 160 nM | 108 nM | CCOc1cc(-c2cc(NCCc3cccc4c3ccn4C)ncn2)ccc1OCC(=O)O [Example 49, (2-Ethoxy-4-{6-[2-(1-methyl-1H-indol-4-yl)-ethylamino]-pyrimidin-4-yl}-phenoxy)-acetic acid]
48 nM | 22 nM |  | CCCOc1ccc2ccccc2c1CCNc1cc(-c2cc(OCC)c(C(=O)O)s2)ncn1 [Example 38, 3-Ethoxy-5-{6-[2-(2-propoxy-naphthalen-1-yl)-ethylamino]-pyrimidin-4-yl}-thiophene-2-carboxylic acid]
452 nM | 726 nM |  | CCOc1cc(-c2cc(NCCc3cccc4sccc34)ncn2)ccc1OCC(=O)O [Example 109]
853 nM | 525 nM |  | CCOc1cc(-c2cc(NCCc3cc(OC)cc4ccccc34)ncn2)ccc1C(=O)O [Example 40, 2-Ethoxy-4-{6-[2-(3-methoxy-naphthalen-1-yl)-ethylamino]-pyrimidin-4-yl}-benzoic acid]
867 nM | 258 nM |  | CCOc1cc(-c2cc(NCCc3cccc4sccc34)ncn2)ccc1C(=O)O [Example 106, 4-[6-(2-Benzo[b]thiophen-4-yl-ethylamino)-pyrimidin-4-yl]-2-ethoxy-benzoic acid]
597 nM | 878 nM |  | CCOc1cc(-c2cc(NCCc3cccc4sccc34)ncn2)ccc1CC(=O)O [Example 110, {4-[6-(2-Benzo[b]thiophen-4-yl-ethylamino)-pyrimidin-4-yl]-2-ethoxy-phenyl}-acetic acid]
544 nM | 287 nM |  | Cc1ccc2c(cnn2C)c1CCNc1cc(-c2ccc(-c3c(O)c(=O)c3=O)cc2)ncn1 [Example 92, 3-(4-{6-[2-(1,5-Dimethyl-1H-indazol-4-yl)-ethylamino]-pyrimidin-4-yl}-phenyl)-4-hydroxy-cyclobut-3-ene-1,2-dione]
356 nM | 335 nM |  | CCOc1cc(-c2cc(NCCc3cccc4ccsc34)ncn2)ccc1OCC(=O)O [Example 104]
22 nM | 5 nM |  | CCOc1cc(-c2cc(NCCc3c(Br)ccc4ccccc34)ncn2)sc1C(=O)O [Example 10, 5-{6-[2-(2-Bromo-naphthalen-1-yl)-ethylamino]-pyrimidin-4-yl}-3-ethoxy-thiophene-2-carboxylic acid]
962 nM | 508 nM |  | CCOc1cc(-c2cc(NCCc3cccc4cc(C)n(C)c34)ncn2)ccc1OCC(=O)O [Example 57, (4-{6-[2-(1,2-Dimethyl-1H-indol-7-yl)-ethylamino]-pyrimidin-4-yl}-2-ethoxy-phenoxy)-acetic acid]
335 nM | 354 nM |  | CCNC(=O)Nc1ccc(-c2cc(NCCc3c(OC)ccc4ncccc34)ncn2)cc1OC [Example 98, 1-Ethyl-3-(2-methoxy-4-{6-[2-(6-methoxy-quinolin-5-yl)-ethylamino]-pyrimidin-4-yl}-phenyl)-urea]
403 nM | 418 nM |  | CCOc1cc(-c2cc(NCCc3cccc4ccccc34)ncn2)ccc1OCC(=O)O [Example 77]
384 nM | 845 nM |  | CCOc1cc(-c2cc(NCCc3ccc(OC)c4ccccc34)ncn2)ccc1OCC(=O)O [Example 60, (2-Ethoxy-4-{6-[2-(4-methoxy-naphthalen-1-yl)-ethylamino]-pyrimidin-4-yl}-phenoxy)-acetic acid]
853 nM | 473 nM |  | CCOc1cc(-c2cc(NCCc3cccc4ccoc34)ncn2)ccc1OCC(=O)O [Example 51]

SMILES | IC50 (EP4) | IC50 (EP2) | IC50 (PTGER2 (EP2))
O=C(O)c1ccc(-c2cc(NCCc3ccc(F)c4ccccc34)ncn2)cc1OC1CCC1 [Example 20, 2-Cyclobutoxy-4-{6-[2-(4-fluoro-naphthalen-1-yl)-ethylamino]-pyrimidin-4-yl}-benzoic acid] | 680 nM | 199 nM | 73 nM
COc1cc(CCNc2cc(-c3ccc(C(=O)O)c(OC4CCC4)c3)ncn2)c2ccccc2c1 [Example 41, 2-Cyclobutoxy-4-{6-[2-(3-methoxy-naphthalen-1-yl)-ethylamino]-pyrimidin-4-yl}-benzoic acid] | 711 nM | 297 nM | 
COc1ccc(CCNc2cc(-c3ccc(C(=O)O)c(OC4CCC4)c3)ncn2)c2ccccc12 [Example 58, 2-Cyclobutoxy-4-{6-[2-(4-methoxy-naphthalen-1-yl)-ethylamino]-pyrimidin-4-yl}-benzoic acid] | 401 nM | 825 nM | 
COc1ccc2c(OC)cccc2c1CCNc1cc(-c2ccc(C(=O)O)c(OC3CCC3)c2)ncn1 [Example 52, 2-Cyclobutoxy-4-{6-[2-(2,5-dimethoxy-naphthalen-1-yl)-ethylamino]-pyrimidin-4-yl}-benzoic acid] | 758 nM | 779 nM | 
